Measured values reported in US20100130549A1, “PSYCHOTROPIC COMPOUNDS, COMPOSITIONS AND METHODS OF USE” (priority 2007, published 2010).

Legend:
BALB/c mice [1] = assay: Open field test
ICR male mice = assay: Subchronic ip administration (toxicity); assay type: in vivo
Description: […]. Except for this local irritation no other toxicity was noted.
[…]. […] Except of these local irritations no other toxicity was noted.

BALB/c mice [2] = assay: Rotor rod test (motor activity); assay type: in vivo; details: 10 mg/kg p.o., 90 min after administration; vs controls
Protocol: The test was performed 90 min after oral administration of the compounds. […] The rotor rod test involves placing the mouse on an elevated rotating bar. In this test, the mouse is placed on the bar such that it is facing the direction opposite to the rotation of the rod. The time lag to fall is determined.

BALBc male mice = assay: Hot plate test; assay type: in vivo; details: 10 mg/kg orally (sertraline equimolar); vs vehicle treated control
Description: The hot-plate test is widely used to measure pain sensation. The latency in response to heat of mice and rats feet is based on the method described by Eddy et al., Synthetic analgesics. II. […] The method is based on placing an animal on heated (52-56 C) surface and measuring the time to response (raising paw, licking of the paw, jumping or running.
The animals were followed for 6 hr.

[3] = 10 and 30 mg/kg ip ×3/week for 2 weeks, sertraline equimolar
[4] = 10 mg/kg (equimolar) ip 1 hr prior, p<0.001 vs controls

Row | Compound | sedative effect accompanying the anxiolytic activity (BALB/c mice [1]; orally 90 min prior) | body weight gain versus controls (ICR male mice; [3]) | chemistry blood picture (ICR male mice; [3]) | histopathology of heart, spleen, liver and kidney (ICR male mice; high dose of 30 mg/kg ip, subchronic, capsule of the abdominal organs) | muscle strength and basic motor activity (BALB/c mice [2]) | latency to heat sensation (BALBc male mice) | total time spent in the center (areas 2+3) (BALB/c mice [1]; 10 mg/kg (equimolar) ip 1 hr prior) | frequency to the center (BALB/c mice [1]; 10 mg/kg (equimolar) ip 1 hr prior, controls 1.23) | distance moved (BALB/c mice [1]; [4]) | velocity (BALB/c mice [1]; [4])
1 | OCCCC#Cc1cc2c(cc1OC[C@@H]1CNCC[C@H]1c1ccc(F)cc1)OCO2 [If] | not accompanied by a sedative effect | – | – | – | – | – | – | – | – | –
2 | CN[C@H]1CC[C@@H](c2ccc(Cl)c(Cl)c2)c2ccccc21 [sertraline, reference compound] | – | no difference | did not show a significant change | minimal to mild irritation | did not modify | significantly increase | significantly increase | 1.27 | significantly increase | significantly increase
